Experimental data as given in patent EP4631951A1, “SYNTHETIC VACCINES AGAINST POR[…]” (Max-Planck-Gesellschaft zur Förderung der Wissenschaften …, priority 2024, dated 2025).
“Also recorded” adds a separate entry of the source.

Key:
human IgG antibodies = test: Glycan microarray with human sera and saliva, IgG; format: binding; conditions: for IgG antibody binding: human saliva and human serum (blood); for IgG antibody binding in saliva, compared between glycans / IgG binding in CP saliva compared with healthy (and recovered) patients: human saliva; for IgG antibody binding in saliva, compared between glycans: MFI, Figures 12 and 13
Text: (§1) Here, human sera and saliva from P. gingivalis infected patients were used to screen antibodies against the synthetic glycan library 1-11 to determine whether LPS fragments are potential leads for vaccine development.
(§2) Samples were taken from a pool of patients at the Charit6 Zahnklinik (provided by Prof. Dr. Henrik Dommisch). The dental status of three groups of patients was defined as: healthy (20 patients, no clinical indications for CP), infected (16 patients, CP stage III or stage IV) and recovered from CP (six patients). Recovered patients were treated from CP stage III or stage IV at the Charit6 Zahnklinik by resective and regenerative surgery and execution of two to four professional dental cleanings per year.
(§3) The synthesized LPS fragments of P. gingivalis were immobilized at NHS-activated carboxyl-functionalized glass slides in triplicates (Figure 10 A, B). Additionally, a positive glycan control containing the α(1→2)-trirhamnose (5.06) was used in the assay, because most humans develop antibodies against this pathogen-associated glycan

human IgA antibodies = test: Glycan microarray with human sera and saliva, IgA; format: binding; conditions: human saliva and serum
Text: as §1, §2, §3

C57BL/6NRj mice = test: Glycan microarray analysis of antibody binding in sera of immunized mice; format: in vivo
Text: The immunizations were approved by Landesamt für Gesundheit und Soziales Berlin, Germany (Approval ID: G 0329/18). 8 weeks old C57BL/6NRj mice (Janvier, Le Genest-Saint_Isle, France) were housed at Bundesinstitut für Risikobewertung, Berlin, Germany in groups of five animals in individually ventilated cages (Tecniplast, Hohenpeißenberg, Germany) under specific pathogen-free conditions. Housing and experiments were in accordance with institutional guidelines and with the regulations of the Federation of European Laboratory Animal Science Associations (FELASA). Mice were immunized subcutaneously (s.c.) with 1µg of glycoconjugate per injection. The glycoconjugates, together with Alum adjuvant, were diluted in sterile PBS to a final volume of 100 µL per dose. The animals were immunized on day 0 (primary immunization) and boosted on days 14, 28, and final boosting on day 196. Blood (max. 80µL) and saliva were collected every two weeks. The mice were fixed with on hand and a swap was used to collect the saliva and was afterwards centrifuged at 400 g for 5 min. After coagulation at room temperature, serum was separated by centrifugation at 2,000 g for 10 min. The sera and saliva were frozen at -20°C until further usage. [drawing 126]
Synthetic polysaccharides containing an amine linker as well as protein controls were immobilized on glass microarray slides. The slides were then quenched, blocked with 1% BSA-PBS, and stored at 4°C until use. […]
Slides were incubated for 1 hour at 37 °C in a humidification chamber, washed three times with PBST, rinsed with deionized water, and dried by centrifugation. Fluorescence signals were measured with a Genepix 4300A device (Molecular Devices, Sunnyvale, CA, USA).
The photomultiplier tube (PMT) voltage was adjusted to avoid oversaturation of the signals. Data were analyzed using GenePix Pro 7 software (Molecular Devices, Sunnyvale, CA, USA). […]

SMILES | IgG antibody binding (human IgG antibodies) | IgG antibody binding in saliva, compared between glycans (human IgG antibodies) | further results
NCCCCCO[C@H]1O[C@H](CO[C@H]2O[C@H](CO)[C@H](O)[C@H](O)[C@H]2O)[C@@H](O)[C@H](O)[C@H]1O [compound 7] | showed IgG antibody binding; also recorded: show binding to IgG antibodies | bind significantly less IgG | IgA antibody binding (human IgA antibodies): significant binding of IgA
CC(=O)N[C@H]1[C@H](OCCCCCN)O[C@H](CO)[C@H](O)[C@@H]1O[C@@H]1O[C@@H](C)[C@H](O[C@H]2O[C@H](CO[C@H]3O[C@H](CO)[C@H](O)[C@H](O)[C@H]3O)[C@@H](O)[C@H](O)[C@H]2O)[C@@H](O)[C@H]1O [compound 1, 5-Aminopentyl-α-D-galactopyranosyl-(1→6)-α-D-glucopyranosyl-(1→4)-α-L-rhamnopyranosyl-(1→3)-2-acetamido-2-deoxy-B-D-galactopyranoside] | – | strongest IgG interaction observed in these studies; also recorded: highest amount of bound IgG antibodies in this study | IgG binding in CP saliva compared with healthy (and recovered) patients (human IgG antibodies): significantly higher than in dental healthy patients; IgG in serum of patients infected with P. gingivalis (human IgG antibodies; human serum): binds; IgM-responses (C57BL/6NRj mice; course of the experiment, response against the named glycan): remained at low levels
CC(=O)N[C@H]1[C@H](O[C@H]2[C@@H](O)[C@@H](CO)O[C@H](OC[C@H]3O[C@H](O[C@@H]4[C@@H](O)[C@@H](O)[C@H](OCCCCCN)O[C@H]4C)[C@H](O)[C@@H](O)[C@@H]3O)[C@@H]2O)O[C@H](CO)[C@H](O)[C@@H]1O [compound 4, 5-Aminopentyl-2-acetamido-2-deoxy-β-D-galactopyranosyl-(1→3)-α-D-galactopyranosyl-(1→6)-α-D-glucopyranosyl-(1→4)-α-L-rhamnopyranoside] | showed IgG antibody binding | higher IgG antibody binding than 5 tetrasaccharide | –
CC(=O)N[C@H]1[C@H](O[C@H]2[C@@H](O)[C@@H](CO)O[C@H](OC[C@H]3O[C@H](OCCCCCN)[C@H](O)[C@@H](O)[C@@H]3O)[C@@H]2O)O[C@H](CO)[C@H](O)[C@@H]1O[C@@H]1O[C@@H](C)[C@H](O)[C@@H](O)[C@H]1O [compound 5, 5-Aminopentyl-α-L-rhamnopyranosyl-(1→3)-2-acetamido-2-deoxy-β-D-galactopyranosyl-(1→3)-α-D-galactopyranosyl-(1→6)-α-D-glucopyranoside] | showed IgG antibody binding; also recorded: show binding to IgG antibodies | – | –
C[C@@H]1O[C@@H](O[C@H]2[C@H](O[C@H]3[C@H](OCCCCCN)O[C@@H](C)[C@H](O)[C@H]3O)O[C@@H](C)[C@H](O)[C@H]2O)[C@H](O)[C@H](O)[C@H]1O [5.06, 5-Aminopentyl-a-(1→2)-L-trirhamnopyranoside, reference compound] | showed IgG antibody binding | – | IgG antibodies in saliva (human IgG antibodies; healthy individuals compared with CP and recovered CP patients): also observed in healthy individuals, but significantly less than in chronical periodontitis patients and recovered chronical periodontitis patients; IgA antibody binding (human IgA antibodies): significant binding of IgA
CC(=O)N[C@H]1[C@H](O[C@H]2[C@@H](O)[C@@H](CO)O[C@H](OCCCCCN)[C@@H]2O)O[C@H](CO)[C@H](O)[C@@H]1O[C@@H]1O[C@@H](C)[C@H](O)[C@@H](O)[C@H]1O [compound 2, 5-Aminopentyl-α-L-rhamnopyranosyl-(1→3)-2-acetamido-2-deoxy-β-D-galactopyranosyl-(1→3)-α-D-galactopyranoside] | show binding to IgG antibodies | higher amount of IgG antibody binding than to rhamnose monomer 9 | IgG binding in CP saliva compared with healthy (and recovered) patients (human IgG antibodies): stronger IgG binding observed for CP patients; IgM levels (C57BL/6NRj mice; day 28, response against the named glycan): relatively high; IgM response peaked (C57BL/6NRj mice; response against the named glycan in mice immunized with its CRM197 conjugate (text names only the glycan)): 14 days
CC(=O)N[C@H]1[C@H](O[C@H]2[C@@H](O)[C@@H](CO)O[C@H](OCCCCCN)[C@@H]2O)O[C@H](CO)[C@H](O)[C@@H]1O[C@@H]1O[C@@H](C)[C@H](O[C@H]2O[C@H](CO)[C@@H](O)[C@H](O)[C@H]2O)[C@@H](O)[C@H]1O [compound 3, 5-Amino-pentyl α-D-glucopyranosyl-(1→4)-α-L-rhamnopyranosyl-(1→3)-2-acetamido-2-deoxy-β-D-galactopyranosyl-(1→3)-α-D-galactopyranoside] | showed IgG antibody binding; also recorded: show binding to IgG antibodies | – | –
NCCCCCO[C@H]1O[C@H](CO)[C@H](O)[C@H](O)[C@H]1O [compound 11, 5-Aminopentyl α-D-galactopyranoside] | show binding to IgG antibodies | bind significantly less IgG | –
